{"source": "paper PMC4585333", "about": "“Novel Regulator of Acylated Ghrelin, CF801, Reduces Weight Gain, Rebound Feeding after a Fast, and Adiposity in Mice” (Frontiers in Endocrinology, 2015)", "key": {"human GOAT (hGOAT)": {"biological_target": "T1, human GOAT (hGOAT) (Homo sapiens, UniProt Q96T53)", "T1 construct": "made in house; host or cells: Sf9 insect cells (membrane fraction)", "T1 sequence (Q96T53 1-435)": "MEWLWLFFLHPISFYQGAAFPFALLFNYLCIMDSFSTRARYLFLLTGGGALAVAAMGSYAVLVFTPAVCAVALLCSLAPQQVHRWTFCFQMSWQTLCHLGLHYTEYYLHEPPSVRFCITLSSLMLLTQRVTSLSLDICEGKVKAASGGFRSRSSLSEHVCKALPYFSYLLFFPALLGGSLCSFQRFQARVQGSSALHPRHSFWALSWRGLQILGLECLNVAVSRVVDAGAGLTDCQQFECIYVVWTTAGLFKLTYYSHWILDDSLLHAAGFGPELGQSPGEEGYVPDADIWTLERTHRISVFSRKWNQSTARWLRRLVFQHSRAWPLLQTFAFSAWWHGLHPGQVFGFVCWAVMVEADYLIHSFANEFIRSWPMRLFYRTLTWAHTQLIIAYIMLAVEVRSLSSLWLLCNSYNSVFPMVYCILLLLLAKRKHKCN", "assay": "Fluorescence-based GOAT activity assay, human GOAT", "type": "biochemical", "details": "concentrations up to 10 μM; Sf9 membranes, 1.5 μM GSSFLCAcDan, 500 μM octanoyl-CoA, 30 min pre-incubation, 1 h room temperature, pH 7.0, HPLC fluorescence, triplicate; F(3,8) = 1.251, p > 0.05", "from_the_text": "The effects of CF801 on GOAT activity were examined using a previously validated fluorescence-based assay, and in comparison with octanoyl-(Dap3)-ghrelin (1–5)–NH2, a well characterized GOAT inhibitor ([56], [63]). In this assay, membrane fractions from Sf9 insect cells were transfected to express either human (hGOAT) or mouse GOAT (mGOAT). Membranes fractions were thawed on ice and passed through an 18-gage needle 10 times enriched using a previously described method ([63]). […] Assays were analyzed by reverse phase HPLC with fluorescence detection. […] The trials were run in triplicate, with the % activity calculated as the integrated fluorescence intensity of the octanoylated product in the CF801 or octanoyl-(Dap3)-ghrelin (1–5)–NH2 run normalized by the same quantity for the vehicle-only reaction. […]\nFigure 3 Percent activity of human GOAT (A) and mouse GOAT (B) (obtained from membrane fractions from Sf9 cells expressing hGOAT and mGOAT, resepectively) when exposed to CF801 and octanoyl-(Dap3)-ghrelin (1–5)–NH2 using a fluorescence-based microsomal assay. GSSFLCAcDan was used as an acylation target with fluorescence measured by reverse phase HPLC with fluorescence detection. […] All values are expressed as mean ± SEM. ***p < 0.001 compared to vehicle control."}, "[1]": {"tested_on": "stomach-derived ghrelinoma (SG-1) cells", "assay": "Cell-based ghrelin secretion assay (acyl ghrelin in medium, ELISA)", "experimental": "Ghrelin secretion studies were performed in stomach-derived ghrelinoma (SG-1) cells, cultured as described previously ([61], [62]). Cells were plated at a density of 5 × 10^4 cells/mL/well on to 24-well plates pre-coated with poly-D-lysine (day 0). On day 2, the cells were treated with the indicated concentrations of test compound CF801, 24 h ahead of the test period and with 50 μM sodium octanoate–bovine serum albumin (BSA), 16 h ahead of the test period. On day 3, the medium was aspirated and the cells were treated with the same concentrations of CF801 in 500 μL serum-free DMEM (Life Technologies, Grand Island, NY, USA) supplemented with 5 mM glucose and 50 μM sodium octanoate–BSA. After a 6-h incubation, the medium was collected, placed on ice, and immediately centrifuged at 800 × g for 5 min. Hydrochloric acid was added to the supernatant to achieve a final concentration of 0.1 N (for stabilization of acyl ghrelin) and stored at −80°C until analysis. Assay for acyl ghrelin and total were performed using commercial ELISA kits (EMD Millipore Corporation, Billerica, MA, USA) according to the manufacturer’s instructions and read in a PowerWave XS Microplate spectrophotometer (BioTek Instruments, Inc., Winooski, VT, USA).\nSG-1 cells are derived from stomach ghrelinomas induced by expression of the SV40 large T-antigen under the preproghrelin promoter. These cells retain many of the features of ghrelin cells within primary cultures of gastric mucosal cells from mice ([61]). They also show elevated expression of both preproghrelin and GOAT mRNA with high levels of acylated ghrelin synthesis and secretion ([61]). In order to test CF801’s ability to reduce acyl ghrelin secretion, we performed an in vitro cell-based assay using an SG-1 cell line as previously described ([61], [62]).\nFigure 1 CF801 inhibits acyl ghrelin secretion from SG-1 cells following 24 h of incubation. […] All values are expressed as mean ± SEM. *p < 0.05, ***p < 0.001 significant difference in acyl ghrelin concentrations with CF801 treatment when compared to untreated control (n = 6 wells)."}}, "note": "Entries after “also recorded” stand apart in the source; their conditions may differ.", "data": [{"sequence": "GSAFLSPEHQRK KRRQRRR-NH2 [CF801]", "values": [{"measurement": "hGOAT activity with CF801", "setting": "human GOAT (hGOAT)", "value": "no inhibition was seen; also recorded: no effect"}, {"measurement": "acyl ghrelin secretion, 100 μM", "setting": "[1]; 100 μM CF801, 24 h incubation, vs untreated control, n = 6 wells, p < 0.05", "value": "Significant decreases in secretion; also recorded: significant reductions in acyl ghrelin secretion"}, {"measurement": "acyl ghrelin secretion, 300 μM", "setting": "[1]; 300 μM CF801, 24 h incubation, vs untreated control, n = 6 wells, p < 0.05", "value": "Significant decreases in secretion; also recorded: significant reductions in acyl ghrelin secretion"}, {"measurement": "acyl ghrelin secretion, 6-h incubation", "setting": "[1]; 6 h incubation, p > 0.05, preliminary, data not shown, even at highest concentration of 300 μM", "value": "No significant effects; also recorded: no effect on acyl ghrelin secretion"}]}]}
